Assay results: ChEMBL document CHEMBL1145233, “Design, synthesis and evaluation of 5-substituted amino-2,4-diamino-8-chloropyrimido-[4,5-b]quinolines as novel antimalarials” (2005)

Key:
Format in all cases: functional
Mus musculus [1] = assay: In vivo antimalarial activity of compound against Plasmodium berghei in mice (Mus musculus) expressed as mean survival time at 160 mg/kg
Mus musculus [2] = assay: In vivo antimalarial activity of compound against Plasmodium berghei in mice (Mus musculus) expressed as mean survival time at 80 mg/kg
Mus musculus [3] = assay: In vivo antimalarial activity of compound against Plasmodium berghei in mice (Mus musculus) expressed as mean survival time at 40 mg/kg
Mus musculus [4] = assay: In vivo antimalarial activity of compound against Plasmodium berghei in mice (Mus musculus) expressed as mean survival time at 20 mg/kg

| Compound | Survival time (Mus musculus [1]) [days] | Survival time (Mus musculus [2]) [days] | Survival time (Mus musculus [3]) [days] | Survival time (Mus musculus [4]) [days] |
| --- | --- | --- | --- | --- |
| Nc1nc(N)c2c(N)c3ccc(Cl)cc3nc2n1 | 20 | 18 | 16 | 15 |
| Nc1nc(N)c2c(Nc3ccc(S(=O)(=O)Nc4ccccn4)cc3)c3ccc(Cl)cc3nc2n1 | 13 | 15 | 14 | 11 |
| CCN(CC)c1cc(Nc2c3ccc(Cl)cc3nc3nc(N)nc(N)c23)cc(N(CC)CC)c1O | >60 | >60 | >60 | >60 |
| Nc1nc(N)c2c(Nc3ccc(O)c(CN4CCCC4)c3)c3ccc(Cl)cc3nc2n1 | 26 | 25 | 20 | 15 |
| CCN(CC)CCCC(C)Nc1ccnc2cc(Cl)ccc12 (stereo unspecified) [CHLOROQUINE] |  |  |  | 15 |
| CN(COOC(C)(C)C)c1c2ccc(Cl)cc2nc2nc(N)nc(N)c12 | 14 | 20 | 30 | 28 |
| Nc1nc(N)c2c(Nc3cc(CN4CCCC4)c(O)c(CN4CCCC4)c3)c3ccc(Cl)cc3nc2n1 | >60 | >60 | >60 | >60 |
| COc1ncnc(NS(=O)(=O)c2ccc(Nc3c4ccc(Cl)cc4nc4nc(N)nc(N)c34)cc2)c1OC | >60 | >60 | >60 | >60 |
| Nc1nc(N)c2c(Nc3ccc(S(N)(=O)=O)cc3)c3ccc(Cl)cc3nc2n1 | 14 | 15 | 13 | 12 |
| CCN(CC)c1cc(Nc2c3ccc(Cl)cc3nc3nc(N)nc(N)c23)ccc1O | 14 | 15 | 13 | 12 |
| CCN(COOC(C)(C)C)c1c2ccc(Cl)cc2nc2nc(N)nc(N)c12 | 15 | 14 | 12 | 13 |
